Here are results for six molecules from ChEMBL document CHEMBL4680365, “Novel Oxopyrido[1,2-a]pyrimidine Compounds for Treating Bacterial Infection” (ACS Med Chem Lett, 2021).

Structures are written as SMILES.

Experiment [1] concerns Klebsiella pneumoniae. As to the kind of experiment: Antibacterial activity against Klebsiella pneumoniae ATCC 10031 assessed as reduction in bacterial growth measured every 20 mins for 16 hrs by serial broth dilution method. The experiment is classed as functional, organism-based. On the technique in general: Dilution methods test growth across graded concentrations, often in twofold steps.

The test system of experiment [2] is Escherichia coli. Briefly: Antibacterial activity against Escherichia coli BW25113 assessed as reduction in bacterial growth measured every 20 mins for 16 hrs by serial broth dilution method. The experiment is classed as functional, organism-based.

With `CNc1c(F)cc(F)c2c1[nH]c1ncc(-c3ccc4ncc(C(=O)O)c(=O)n4c3)c(N(C)C)c12`, the IC50 (as a rule, the concentration that gives 50% inhibition) was under 98 nM in experiment [1] and 497 nM in experiment [2].
Consider `CNc1cc(F)c(F)c2c1[nH]c1ncc(-c3cc(CN4CCOCC4)c4ncc(C(=O)O)c(=O)n4c3)c(N(C)C)c12`, for which the IC50 is under 98 nM in experiment [1] and 523 nM in experiment [2].
For `CNc1cc(F)c(F)c2c1[nH]c1ncc(-c3cc(C)c4ncc(C(=O)O)c(=O)n4c3)c(N(C)C)c12` the same measures were under 98 nM and 262 nM.
Turning to `CNc1c(F)c(F)cc2c1[nH]c1ncc(-c3ccc4ncc(C(=O)O)c(=O)n4c3)c(N(C)C)c12`, the IC50 in experiment [1] is under 98 nM; in experiment [2], 442 nM.
As to `CNc1cc(F)c(F)c2c1[nH]c1ncc(-c3cc(CN(C)C)c4ncc(C(=O)O)c(=O)n4c3)c(N3CCCC3)c12`, the IC50 in experiment [1] is under 98 nM; in experiment [2], 663 nM.
Consider `CNc1cc(F)c(Cl)c2c1[nH]c1ncc(-c3ccc4ncc(C(=O)O)c(=O)n4c3)c(N(C)C)c12`, for which the figures for the IC50 in experiment [1] and in experiment [2] were under 98 nM and 458 nM, respectively.
